# In patent US12201618B2 (Biohaven Therapeutics Ltd., priority 2018, dated 2025):
# Assays:
# [1] = system: patients diagnosed with Alzheimer's disease of mild-to-moderate severity; assay: T2 Protect AD Phase 2/3 trial: neuropsychiatric inventory (NPI); format: in vivo, human; conditions: after 48 weeks
# Description: The NPI is a well-validated, reliable, multi-item instrument to assess psychopathology in AD dementia based on the results of an interview with the study partner (Cummings, 1997). The NPI evaluates both the frequency and severity of 10 neuropsychiatric features, including delusions, hallucinations, agitation/aggression, dysphoria, anxiety, euphoria, apathy, disinhibition, irritability and lability, and aberrant motor behavior, as well as evaluates sleep and appetite/eating disorders. Frequency assessments range from 1 (occasionally, less than once per week) to 4 (very frequently, once or more per day or continuously). Severity assessments range from 1 (mild) to 3 (severe). The score for each subscale is the product of severity and frequency and the total score is the sum of all subscales.
# (§1) The T2 Protect AD trial has been conducted, which is a Phase 2/3, randomized, double-blind, placebo-controlled study evaluating the efficacy and safety of troriluzole in patients diagnosed with Alzheimer's disease of mild-to-moderate severity (Mini-Mental State Examination [MMSE] scores of 14-24; mild: 20-24, moderate: 14-19).
# [2] = system: patients diagnosed with Alzheimer's disease of mild-to-moderate severity; assay: T2 Protect AD Phase 2/3 trial: ADAS-Cog 11; format: in vivo, human; conditions: for ADAS-Cog Total Score Week 48 Model Estimates LSMean (SE): Week 48, change from baseline; for ADAS-Cog Total Score Week 48 Model Estimates LSMean (SE) Difference: Week 48, placebo vs troriluzole
# Description: (§2) The ADAS-Cog 11 evaluates memory (word recall, word recognition), reasoning (following commands), language (naming, comprehension), orientation, ideational praxis (placing a letter in an envelope) and constructional praxis (copying geometric designs). Ratings of spoken language, language comprehension, word finding difficulty, and ability to remember test instructions are also obtained. The test is scored in terms of errors, with higher scores reflecting poorer performance and greater impairment. Scores can range from 0 (best) to 70 (worse).
# The primary efficacy endpoint is the within-participant change in ADAS-Cog 11 from baseline to week 48, compared between the treatment group and the placebo group.
# as §2, with “11 (Rosen, Mohs, & Davis, 1984) is a structured scale that” for “11”
# as §1
# [3] = system: patients diagnosed with Alzheimer's disease of mild-to-moderate severity; assay: T2 Protect AD Phase 2/3 trial: CDR-Sum of Boxes; format: in vivo, human; conditions: for CDR01-Sum of Boxes Week 48 Model Estimates LSMean (SE): Week 48, change from baseline; for CDR01-Sum of Boxes Week 48 Model Estimates LSMean (SE) Difference: Week 48, placebo vs troriluzole
# Description: The CDR-SOB (Hughes, Berg, Danziger, Coben, & Martin, 1982) is a validated composite rating of cognition and everyday functioning used in longitudinal AD research which incorporates both informant input and direct assessment of performance. It assesses through semi structured interview 3 cognitive domains including memory, orientation, and judgement/problem solving and 3 everyday functional domains including community affairs, home and hobbies and personal care. There are 5 levels of impairment from none CDR=0 to severe CDR=3. The individual domain scores are added to create a sum of the box scores.
# as §1
# [4] = system: patients diagnosed with Alzheimer's disease of mild-to-moderate severity; assay: T2 Protect AD Phase 2/3 trial: volumetric hippocampal MRI; format: in vivo, human; conditions: for Hippocampal Volume Change Week 48 Model Estimates LSMean (SE) Difference: Week 48, placebo vs troriluzole
# Description: vMRI allows the in vivo assessment of brain structure volume and provides a measure of atrophy rate. […] Atrophy of the medial temporal lobe, including hippocampus and entorhinal cortex, has long been described in vMRI studies of AD. Hippocampal volume derived from MRI correlates with histological hippocampal volume and degree of neuronal loss and AD pathology, and entorhinal cortical thickness change appears to be an early and sensitive indicator of neurodegeneration associated with AD (Holland et al., 2009; Jack et al., 2004).
# Participants will undergo vMRI scans of the brain at screening, week 24 and week 48 in order to assess for changes in brain volumes that may be associated with clinical change due to treatment with BHV-4157.
# Volumetric MRI scans will use the same imaging protocol, which will include a localizer scan, a 3D T1weighted sagittal acquisition (MPRAGE or IR-SPGR), a T2-weighted FLAIR axial acquisition, a T2* gradient recalled echo axial acquisition for magnetic susceptibility, and a diffusion weighted axial acquisition to assess for restricted diffusion.
# Images will be checked for image quality and adherence to scanning protocols. 3D T1-weighted datasets passing quality checks will be corrected for spatial distortion and for intensity variation. Screening and follow-up datasets for each participant will be spatially registered to one another using rigid-body registration followed by nonlinear registration and neuroanatomic parcellation to quantify whole-brain and subregional volumetric change on a patient-by patient basis.
# Whole brain volume (WBV, excluding cerebellum), bilateral ventricular volume and bilateral hippocampal volume will be measured. Quantitative anatomical regional change (Quarc) will be used as the computational MR image processing application. Detail for the statistical computations is given in the Statistical Analytical Plan (SAP).
# as §1
# [5] = taken with meals; cited from earlier work
# [6] = mild-to-moderate AD, all patients, Week 48
# [7] = mild-to-moderate AD, all patients
smiles,measurement,setting,value
CN(CC(=O)Nc1nc2ccc(OC(F)(F)F)cc2s1)C(=O)CNC(=O)CN [Troriluzole],NPI score LS mean change difference versus placebo,"[1]; mild AD, 95% CI: −5.99, 1.78, p-value=0.286",−2.1
same,LS mean change from baseline on the NPI score,"[1]; mild AD, n=62",2.1 points
same,NPI score LS mean change difference versus placebo,"[1]; mild-to-moderate AD, 95% CI: −4.08, 1.10, p-value=0.258",−1.5
same,LS mean change from baseline on the NPI score,"[1]; mild-to-moderate AD, n=120",2.3 points
same,ADAS-Cog Total Score Week 48 Analysis Value Mean (SD),"[2]; Mild AD Patients Only, Week 48",26.2 (8.22)
same,ADAS-Cog Total Score Week 48 Analysis Value Median,"[2]; Mild AD Patients Only, Week 48",26.0
same,ADAS-Cog Total Score Week 48 Change from Baseline Mean (SD),"[2]; Mild AD Patients Only, Week 48",3.9 (5.90)
same,ADAS-Cog Total Score Week 48 Change from Baseline Median,"[2]; Mild AD Patients Only, Week 48",4.0
same,ADAS-Cog Total Score Week 48 Model Estimates LSMean (SE),[2]; Mild AD Patients Only,4.2 (0.76)
same,ADAS-Cog Total Score Week 48 Model Estimates LSMean (SE) Difference,[2]; Mild AD Patients Only,0.7 (1.02)
same,ADAS-Cog11 score LS mean change difference versus placebo,"[2]; mild AD, after 48 weeks, 95% CI: −1.4, 2.7, p-value=0.5233",0.7
same,LS mean change from baseline on the ADAS-Cog11 score,"[2]; mild AD, after 48 weeks, n=65",4.2 points
same,ADAS-Cog Total Score Week 48 Analysis Value Median,[2]; [6],30.0
same,ADAS-Cog Total Score Week 48 Change from Baseline Mean (SD),[2]; [6],5.8 (7.40)
same,ADAS-Cog Total Score Week 48 Change from Baseline Median,[2]; [6],6.0
same,ADAS-Cog Total Score Week 48 Analysis Value Mean (SD),"[2]; mild-to-moderate AD, all patients, Week 48, 280 mg once daily",31.5 (10.82)
same,ADAS-Cog Total Score Week 48 Model Estimates LSMean (SE),[2]; [7],6.7 (0.70)
same,ADAS-Cog Total Score Week 48 Model Estimates LSMean (SE) Difference,[2]; [7],0.0 (0.93)
same,CDR01-Sum of Boxes Week 48 Analysis Value Mean (SD),[3]; Mild AD Patients Only,7.1 (2.79)
same,CDR01-Sum of Boxes Week 48 Analysis Value Median,[3]; Mild AD Patients Only,6.5
same,CDR01-Sum of Boxes Week 48 Change from Baseline Mean (SD),[3]; Mild AD Patients Only,1.4 (2.06)
same,CDR01-Sum of Boxes Week 48 Change from Baseline Median,[3]; Mild AD Patients Only,1.0
same,CDR01-Sum of Boxes Week 48 Model Estimates LSMean (SE),[3]; Mild AD Patients Only,1.7 (0.29)
same,CDR01-Sum of Boxes Week 48 Model Estimates LSMean (SE) Difference,[3]; Mild AD Patients Only,−0.3 (0.40)
same,CDR01-Sum of Boxes Week 48 Analysis Value Mean (SD),[3]; [7],8.3 (3.24)
same,CDR01-Sum of Boxes Week 48 Analysis Value Median,[3]; [7],8.0
same,CDR01-Sum of Boxes Week 48 Change from Baseline Mean (SD),[3]; [7],1.9 (2.37)
same,CDR01-Sum of Boxes Week 48 Change from Baseline Median,[3]; [7],2.0
same,CDR01-Sum of Boxes Week 48 Model Estimates LSMean (SE),[3]; [7],2.1 (0.21)
same,CDR01-Sum of Boxes Week 48 Model Estimates LSMean (SE) Difference,[3]; [7],−0.2 (0.28)
same,Hippocampal Volume Change Week 48 Analysis Value Mean (SD),[4]; Mild AD Patients Only,−1.1 (1.61)
same,Hippocampal Volume Change Week 48 Analysis Value Median,[4]; Mild AD Patients Only,−0.9
same,Hippocampal Volume Change Week 48 Model Estimates LSMean (SE),[4]; Mild AD Patients Only,−1.1 (0.27)
same,Hippocampal Volume Change Week 48 Model Estimates LSMean (SE) Difference,[4]; Mild AD Patients Only,−0.5 (0.38)
same,hippocampal volume LS mean percent deformation change difference versus placebo,"[4]; mild AD, after 48 weeks, 95% CI: −1.2, 0.3, p-value=0.2240",−0.5%
same,LS mean percent deformation change from baseline hippocampal volume,"[4]; mild AD, after 48 weeks, n=48",−1.1%
same,Hippocampal Volume Change Week 48 Analysis Value Mean (SD),[4]; [7],−1.1 (1.50)
same,Hippocampal Volume Change Week 48 Analysis Value Median,[4]; [7],−0.9
same,Hippocampal Volume Change Week 48 Model Estimates LSMean (SE),[4]; [7],−1.1 (0.18)
same,Hippocampal Volume Change Week 48 Model Estimates LSMean (SE) Difference,[4]; [7],0.0 (0.26)
"Nc1nc2ccc(OC(F)(F)F)cc2s1 [Riluzole, 6-(trifluoromethoxy)benzothiazol-2-amine]",food effect on exposure,[5],reduced exposure when taken with meals
